Test results published in patent publication US8317912B2, “Wet state preservation of mineral slurries” (Arch Chemicals, Inc., priority 2011, dated 2012).

Tested on: contaminated slurry
Experiment: Wet state preservation challenge test: dosed calcium carbonate slurry inoculated repeatedly with contaminated slurry, streaked on nutrient agar, examined for viable colonies; for growth of viable colonies on nutrient agar: key: − = no growth (no visible colonies); <10 = very light growth; + = light growth; ++ = moderate growth; +++ = heavy growth
Assay type: cell-based, bacteria
Parameters: viable colonies on nutrient agar: unit not given here
Conditions: for test outcome in place of 3rd inoculation: surfactant 0.1, 0.05, 0.025 and 0.01%, test completed after 2nd inoculation; for efficacy in preserving contaminated slurry (summary of Tables 4-8): between 0.03% and 0.09% of biocide A plus the surfactant, compared to biocide A and the surfactant used alone; for growth of viable colonies on nutrient agar: Biocide A 0 %
Experimental: In this example, a calcium carbonate-containing aqueous slurry was sterilized to eradicate bacterial contamination by weighing out 40 g aliquots into 60 g glass bottles and autoclaving the aliquots for 20 minutes at 120° C. A series of samples were prepared by taking the 40 g aliquots of the sterilized slurry and dosing with 0.136, 0.091, 0.046, 0.023, 0.011, and 0% of a biocide composition (“Biocide A”) shown in Table 1 plus 0, 0.01, 0.025, 0.05, and 0.1% of a surfactant as shown in Table 2. All samples were allowed to stand for 24 hours to equilibrate.
After equilibration, each test sample was inoculated with 0.8 g of a contaminated slurry, the bacteria count of which is shown in Table 3. The samples were incubated at 30° C. After a contact time of 6 hours, 1, 2, 3, or 4 days, a small aliquot of each sample was streaked across the surface of nutrient agar, incubated at 30° C. for 48 hours and the surface was examined for viable colonies. The inoculation and assessment procedures were repeated at 3 or 4 day intervals for a period of 3 inoculations.

[1] = Biocide A 0.091%, surfactant 0.05%, 1st inoculation, 1 day
[2] = surfactant 0.01 %, 1st inoculation, 0.2 days
[3] = surfactant 0.01 %, 1st inoculation, 1 day
[4] = surfactant 0.01 %, 1st inoculation, 2 days
[5] = surfactant 0.01 %, 1st inoculation, 3 days
[6] = surfactant 0.025 %, 1st inoculation, 0.2 days
[7] = surfactant 0.025 %, 1st inoculation, 1 day
[8] = surfactant 0.025 %, 1st inoculation, 2 days
[9] = surfactant 0.025 %, 1st inoculation, 3 days
[10] = surfactant 0.05 %, 1st inoculation, 0.2 days
[11] = surfactant 0.05 %, 1st inoculation, 1 day
[12] = surfactant 0.05 %, 1st inoculation, 2 days
[13] = surfactant 0.05 %, 1st inoculation, 3 days
[14] = surfactant 0.1 %, 1st inoculation, 0.2 days
[15] = surfactant 0.1 %, 1st inoculation, 1 day
[16] = surfactant 0.1 %, 1st inoculation, 2 days
[17] = surfactant 0.1 %, 1st inoculation, 3 days
[18] = Biocide A 0.091%, surfactant 0.01%, 1st inoculation, 0.2 days
[19] = Biocide A 0.136%, surfactant 0.025%, 3rd inoculation, 1 day
[20] = Biocide A 0.136%, surfactant 0.05%, 3rd inoculation, 1 day

| Structure (SMILES) | test outcome in place of 3rd inoculation (Biocide A 0.023%) | viable colonies on nutrient agar [1] | efficacy in preserving contaminated slurry (summary of Tables 4-8) | growth of viable colonies on nutrient agar [2] | growth of viable colonies on nutrient agar [3] | growth of viable colonies on nutrient agar [4] | growth of viable colonies on nutrient agar [5] | growth of viable colonies on nutrient agar [6] | growth of viable colonies on nutrient agar [7] | growth of viable colonies on nutrient agar [8] | growth of viable colonies on nutrient agar [9] | growth of viable colonies on nutrient agar [10] | growth of viable colonies on nutrient agar [11] | growth of viable colonies on nutrient agar [12] | growth of viable colonies on nutrient agar [13] | growth of viable colonies on nutrient agar [14] | growth of viable colonies on nutrient agar [15] | growth of viable colonies on nutrient agar [16] | growth of viable colonies on nutrient agar [17] | viable colonies on nutrient agar [18] | other results |
| --- | --- | --- | --- | --- | --- | --- | --- | --- | --- | --- | --- | --- | --- | --- | --- | --- | --- | --- | --- | --- | --- |
| CCCCC(CC)COC(=O)CC(C(=O)OCC(CC)CCCC)S(=O)(=O)[O-].[Na+] (centres unmarked) [Aerosol ® OT, Sodium dioctyl suphosuccinate] | SAMPLES FAILED | <10 | improved efficacy | +++ | +++ | +++ | +++ | +++ | +++ | +++ | +++ | +++ | +++ | +++ | +++ | +++ | +++ | +++ | +++ |  | viable colonies on nutrient agar (Biocide A 0.091%, surfactant 0.01%, 1st inoculation, 1 day): <10; viable colonies on nutrient agar (Biocide A 0.136%, surfactant 0.025%, 1st inoculation, 1 day): <10 |
| CCCCCCCCCCCCc1ccc(S(=O)(=O)O)cc1 [Dodecyl benzene sulfonic acid] | SAMPLES FAILED |  | improved efficacy | +++ | +++ | +++ | +++ | +++ | +++ | +++ | +++ | +++ | +++ | +++ | +++ | +++ | +++ | +++ | +++ | <10 | viable colonies on nutrient agar (Biocide A 0.023%, surfactant 0.01%, 1st inoculation, 2 days): <10; viable colonies on nutrient agar (Biocide A 0.023%, surfactant 0.05%, 1st inoculation, 2 days): <10; viable colonies on nutrient agar (Biocide A 0.023%, surfactant 0.05%, 1st inoculation, 3 days): <10; viable colonies on nutrient agar (Biocide A 0.023%, surfactant 0.1%, 1st inoculation, 2 days): <10; viable colonies on nutrient agar (Biocide A 0.023%, surfactant 0.1%, 1st inoculation, 3 days): <10; viable colonies on nutrient agar (Biocide A 0.046%, surfactant 0.025%, 3rd inoculation, 2 days): <10; viable colonies on nutrient agar (Biocide A 0.046%, surfactant 0.05%, 3rd inoculation, 2 days): <10; viable colonies on nutrient agar (Biocide A 0.046%, surfactant 0.1%, 3rd inoculation, 2 days): <10; viable colonies on nutrient agar (Biocide A 0.091%, surfactant 0.01%, 3rd inoculation, 1 day): <10; viable colonies on nutrient agar (Biocide A 0.091%, surfactant 0.05%, 1st inoculation, 0.2 days): <10; viable colonies on nutrient agar (Biocide A 0.091%, surfactant 0.1%, 3rd inoculation, 1 day): <10; viable colonies on nutrient agar (Biocide A 0.136%, surfactant 0.01%, 3rd inoculation, 1 day): <10; viable colonies on nutrient agar [19]: <10; viable colonies on nutrient agar [20]: <10 |
| CCCCC(CC)CN(CCC(=O)[O-])CCC(=O)[O-].[Na+].[Na+] (centres unmarked) [Lakeland AMA LF70 ™] | SAMPLES FAILED | <10 |  |  |  |  |  |  |  |  |  |  |  |  |  |  |  |  |  | <10 | viable colonies on nutrient agar (Biocide A 0.046%, surfactant 0.01%, 1st inoculation, 2 days): <10; viable colonies on nutrient agar (Biocide A 0.046%, surfactant 0.1%, 1st inoculation, 2 days): <10; viable colonies on nutrient agar (Biocide A 0.091%, surfactant 0.01%, 3rd inoculation, 2 days): <10; viable colonies on nutrient agar (Biocide A 0.091%, surfactant 0.025%, 1st inoculation, 3 days): <10; viable colonies on nutrient agar (Biocide A 0.091%, surfactant 0.05%, 1st inoculation, 3 days): <10; viable colonies on nutrient agar (Biocide A 0.091%, surfactant 0.05%, 3rd inoculation, 2 days): <10; viable colonies on nutrient agar (Biocide A 0.091%, surfactant 0.1%, 1st inoculation, 3 days): <10; viable colonies on nutrient agar (Biocide A 0.091%, surfactant 0.1%, 3rd inoculation, 2 days): <10; viable colonies on nutrient agar (Biocide A 0.136%, surfactant 0.01%, 1st inoculation, 3 days): <10; viable colonies on nutrient agar [19]: <10; viable colonies on nutrient agar (Biocide A 0.136%, surfactant 0.05%, 1st inoculation, 1 day): <10; viable colonies on nutrient agar (Biocide A 0.136%, surfactant 0.05%, 1st inoculation, 3 days): <10; viable colonies on nutrient agar [20]: <10; viable colonies on nutrient agar (Biocide A 0.136%, surfactant 0.1%, 1st inoculation, 1 day): <10; viable colonies on nutrient agar (Biocide A 0.136%, surfactant 0.1%, 1st inoculation, 3 days): <10 |
| CCCCCCCCCCCCOS(=O)(=O)[O-].[Na+] [SDS, Sodium dodecyl sulfate] |  |  | improved efficacy | +++ | +++ | +++ | +++ | +++ | +++ | +++ | +++ | +++ | +++ | +++ | +++ | +++ | +++ | +++ | +++ |  | viable colonies on nutrient agar (Biocide A 0.023%, surfactant 0.01%, 1st inoculation, 3 days): <10; viable colonies on nutrient agar (Biocide A 0.023%, surfactant 0.025%, 1st inoculation, 1 day): <10; viable colonies on nutrient agar (Biocide A 0.046%, surfactant 0.01%, 1st inoculation, 1 day): <10; viable colonies on nutrient agar (Biocide A 0.046%, surfactant 0.01%, 3rd inoculation, 3 days): <10; viable colonies on nutrient agar (Biocide A 0.046%, surfactant 0.05%, 1st inoculation, 0.2 days): <10; viable colonies on nutrient agar (Biocide A 0.046%, surfactant 0.05%, 2nd inoculation, 1 day): <10; viable colonies on nutrient agar (Biocide A 0.046%, surfactant 0.1%, 1st inoculation, 0.2 days): <10; viable colonies on nutrient agar (Biocide A 0.046%, surfactant 0.1%, 2nd inoculation, 1 day): <10; viable colonies on nutrient agar (Biocide A 0.091%, surfactant 0.025%, 3rd inoculation, 0.2 days): <10 |
